{
  "source": "patent US9828406B2",
  "about": "“Antitumor agent” (KINKI UNIVERSITY, priority 2011, dated 2017)",
  "key": {"[1]": {"test_system": "renal cancer cells (ACHN)", "experiment": "Combination with paclitaxel, survival rate of tumor cells (WST-8)", "type": "cell-based, human", "conditions": "29 nM paclitaxel alone", "protocol": "(§1) For cell culture, RPMI1640 medium (manufactured by Gibco Co., Ltd.) and DMEM medium (manufactured by Gibco Co., Ltd.) were mixed in a ratio of 1:1 and supplied 7% FBS (fetal bovine serum, manufactured by Nichirei Biosciences Inc.) and antibiotic mixture (mixture of penicillin, streptomycin, amphotericin B Mix, 100-fold concentrated solution (Nakarai Co.). Trypsinized cells were diluted to 1×10^5 cells/ml and seeded at 400 μl/well in 48-well dishes. Immediately after seeding, the test compound (dissolved in DMSO) was added to a final concentration of 0.5%, cultured for 24 hours in a CO2 incubator under an atmosphere of 5% of CO2, at a temperature of 36° C. to 37° C. […]\n(§2) To 400 μl of cells culture, 18 μl of Cell Count Reagent SF (manufactured by Nacalai Inc.) was added. After being cultured for 2 to 3 hours (in a case where activity is low, cultured for 19 hours) under an atmosphere of 5% of CO2, at a temperature of 36° C. to 37° C., the broth was stirred, and the amount of formazan produced in the broth was calculated from absorbance at a wavelength of 450 nm. Using a measured value at a wavelength of 600 nm as a control, OD450-OD600 was set to an activity value. […]\nA survival rate of the tumor cells was calculated, in the same manner as in Example 4 except that 5 μM of the glycoside compound and 29 nM of paclitaxel were added to the medium immediately after seeding the tumor cells."}, "[2]": {"test_system": "gastric cancer cells (MKN45)", "experiment": "WST-8 cell proliferation assay, gastric cancer cells", "type": "cell-based, human", "conditions": "MKN45, cultured for 24 hours, WST-8 assay, DMSO control = 100%", "protocol": "(§3) For cell culture, RPMI1640 medium (manufactured by Gibco Co., Ltd.) and DMEM medium (manufactured by Gibco Co., Ltd.) were mixed in a ratio of 1:1 and supplied 7% FBS (fetal bovine serum, manufactured by Nichirei Biosciences Inc.) and antibiotic mixture (mixture of penicillin, streptomycin, amphotericin B Mix, 100-fold concentrated solution (Nakarai Co.). Trypsinized cells were diluted to 1×10^5 cells/ml and seeded at 400 μl/well in 48-well dishes. Immediately after seeding, the test compound (dissolved in DMSO) was added to a final concentration of 0.5%, cultured for 24 hours in a CO2 incubator under an atmosphere of 5% of CO2, at a temperature of 36° C. to 37° C. After culturing, WST-8 assay was performed. An activity value of DMSO control was set to 100%, and the activities of each cell to which the test compound was added were investigated.\n(§4) To 400 μl of cells culture, 18 μl of Cell Count Reagent SF (manufactured by Nacalai Inc.) was added. After being cultured for 2 to 3 hours (in a case where activity is low, cultured for 19 hours) under an atmosphere of 5% of CO2, at a temperature of 36° C. to 37° C., the broth was stirred, and the amount of formazan produced in the broth was calculated from absorbance at a wavelength of 450 nm. Using a measured value at a wavelength of 600 nm as a control, OD450-OD600 was set to an activity value."}, "[3]": {"test_system": "acute lymphoblastic leukemia T-cells (Molt-4)", "experiment": "WST-8 cell proliferation assay, acute lymphoblastic leukemia T-cells", "type": "cell-based, human", "conditions": "Molt-4, cultured for 24 hours, WST-8 assay, DMSO control = 100%", "protocol": "as §3, §2"}, "[4]": {"test_system": "normal embryonic kidney-derived cells (HEK293F)", "experiment": "WST-8 cell proliferation assay, normal embryonic kidney-derived cells", "type": "cell-based", "conditions": "cultured for 24 hours, WST-8 assay, DMSO control = 100%", "protocol": "as §3, §4"}, "[5]": {"test_system": "cervical cancer cells (HeLa)", "experiment": "Combination with cisplatin, survival rate of tumor cells (WST-8)", "type": "cell-based, human", "protocol": "as §1, §2\nThe survival rate of the tumor cells was calculated, in the same manner as in Example 4 except that 15 μM of the glycoside compound and 333 μM of cisplatin were added to the medium immediately after seeding the tumor cells. […]"}, "[6]": {"test_system": "urinary bladder cancer cells (T24)", "experiment": "Combination with doxorubicin, survival rate of tumor cells (WST-8)", "type": "cell-based, human", "conditions": "T24, 10 μM doxorubicin alone", "protocol": "as §3, §2"}},
  "data": [
    {"smiles": "CC(=O)O[C@H]1C(=O)[C@@]2(C)[C@H]([C@H](OC(=O)c3ccccc3)[C@]3(O)C[C@H](OC(=O)[C@H](O)[C@@H](NC(=O)c4ccccc4)c4ccccc4)C(C)=C1C3(C)C)[C@]1(OC(C)=O)CO[C@@H]1C[C@@H]2O", "note": "[paclitaxel]", "values": [
      {"measurement": "survival rate of the tumor cells", "setting": "[1]", "result": 63.8, "unit": "%"}
    ]},
    {"smiles": "CCCCCCCC(=O)O[C@@H]1[C@H](OC[C@@H](O)[C@@H](O)[C@H](O)[C@H](O)[C@@H](O)CO)O[C@H](COC(=O)CCCCC)[C@@H](OC(=O)CCCCC)[C@@H]1OC(=O)CCCCC", "note": "[Preparation Example 24, D-glycero-D-galactoheptitol-1-yl 3,4,6-tri-O-hexanoyl-2-O-octanoyl-β-D-mannopyranoside]", "values": [
      {"measurement": "IC50", "setting": "[2]", "result": 16, "unit": "µM"},
      {"measurement": "IC50", "setting": "[3]", "result": 8.1, "unit": "µM"},
      {"measurement": "IC50", "setting": "[4]", "result": 21.8, "unit": "µM"}
    ]},
    {"smiles": "N.N.[Cl][Pt][Cl]", "note": "[cisplatin]", "values": [
      {"measurement": "Survival Rate after 19 Hours", "setting": "[5]; 42 μM cisplatin alone, WST-8 incubated for 19 hours", "result": 106.8, "unit": "%"},
      {"measurement": "Survival Rate after 2 Hours", "setting": "[5]; 333 μM cisplatin alone, WST-8 incubated for 2 hours", "result": 58.8, "unit": "%"}
    ]},
    {"smiles": "COc1cccc2c1C(=O)c1c(O)c3c(c(O)c1C2=O)C[C@@](O)(C(=O)CO)C[C@@H]3O[C@H]1C[C@H](N)[C@H](O)[C@H](C)O1", "note": "[doxorubicin]", "values": [
      {"measurement": "survival rate of the tumor cells", "setting": "[6]", "result": 57.3, "unit": "%"}
    ]}
  ]
}
